Drawing on PubChem BioAssay (NCI), this text covers GI50 and TGI for 8 molecules.

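A five-concentration, 48-hour dose response in 96-well plates underlies each endpoint, interpolated linearly between surrounding concentrations. The concentration for 50% growth inhibition is given as GI50. The concentration for full growth arrest is given as TGI.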

What all share (assay): inhibition of tumour cell growth, NCI panel, 48 h
In test [1] the test system is DU-145 prostate.
Test [2] concerns BT-549 breast.
The test system of test [3] is SNB-75 CNS.
For test [4], the system named is MCF7 breast.
Test [5] relates to K-562 leukemia.
Test [6] deals with SK-MEL-28 melanoma.
Test [7] relates to SF-539 CNS.
Test [8] deals with HCC-2998 colon.
For test [9], the system named is OVCAR-4 ovarian.
The subject of test [10] is SK-MEL-2 melanoma.

As to `Brc1ccc(Nc2nc3ccccc3nc2Nc2ccc(Br)cc2)cc1`, the GI50 was 0.644 µM in test [1]; 2.44 µM in test [2]; 1.9 µM in test [3]; 0.527 µM in test [4]; 0.786 µM in [5]; 2.18 µM in [6]. For the same molecule, the GI50 in test [7] is 1.51 µM; in test [8] it was 1.66 µM; in test [9], 1.25 µM; in [10], 2.26 µM. Besides, the TGI in test [1] turned out to be 12.4 µM; in [2], 7.98 µM; in [3], 7.04 µM; in test [4] it was 5.41 µM; in test [5] it was 11.6 µM; in test [6], 6.87 µM. Besides, the TGI in [7] came out at 3.56 µM; in test [8], 7.7 µM; in test [9], 8.98 µM; in test [10], 5.48 µM.

Consider `NCCCNc1nc2ccc(Cl)cc2c2c(=O)c3cc(F)ccc3sc12`, for which the GI50 in [1] was 1.97 µM; in [2], 14.3 µM; in [3] it was 4.15 µM; in test [4], 1.68 µM; in test [5], 1.74 µM; in test [6], 10.1 µM. The GI50 in test [7] was 3.79 µM; in [8], 1.89 µM; in test [9] it was 4.3 µM; in test [10] it was 12.4 µM. The TGI was 4.05 µM in test [1]; 29.6 µM in test [2]; 19.1 µM in test [3]; 3.42 µM in test [4]; 3.73 µM in [5]; 24.2 µM in test [6]. For the same molecule, the TGI in test [7] turned out to be 14.3 µM; in test [8] it was 4.38 µM; in test [9] it was 18 µM; in test [10], 33.3 µM.

As to `O=C1NC(=O)C(c2ccccc2)=C1Nc1ccccc1`, the GI50 in test [1], in test [2], in test [3], in test [4], in test [5] and in test [6] was greater than 25 µM throughout. Also, the GI50 in [7], in test [8], in [9] and in [10] was greater than 25 µM throughout. The TGI in test [1], in test [2], in [3], in test [4], in [5] and in test [6] was greater than 25 µM in each case. In addition, the TGI in test [7], in test [8], in [9] and in test [10] was greater than 25 µM throughout.

For the molecule `COc1cc2c(cc1OCCCCn1c(-c3cccs3)nc3ccccc31)N=C[C@@H]1CCCN1C2=O`, the GI50 is 1.32 µM in test [1]; 0.417 µM in [2]; 1.22 µM in [3]; 0.66 µM in [4]; 15.5 µM in [5]; 1.53 µM in test [6]. Further, the GI50 was 1.72 µM in test [7], 2.08 µM in test [8], 1.61 µM in [9] and 1.47 µM in test [10]. Further, the TGI in test [1] was 6.74 µM; in [2], 1.2 µM; in [3] it was 2.54 µM; in [4], 12.5 µM; in test [5] it was greater than 100 µM; in [6], 3.27 µM. The TGI in test [7] amounted to 3.66 µM; in [8], 4.5 µM; in test [9], 4.67 µM; in test [10], 4.68 µM.

As for `C=C(CN1CCN(c2ccccc2C(F)(F)F)CC1)c1ccc(C(=O)Nc2ccccc2N)cc1`, the GI50 in test [1] was 7.51 µM; in [2], 2.67 µM; in test [3], 2.82 µM; in [4], 4.48 µM; in test [5] it was 1.54 µM; in test [6] it was 10.4 µM. The GI50 in test [7] was 3.27 µM; in test [8], 3.83 µM; in test [9], 6.53 µM; in [10] it was 10.3 µM. For the same molecule, the TGI in [1] was greater than 49.5 µM; in [2] it was 14 µM; in test [3], 20.1 µM; in [4], 37.1 µM; in test [5], greater than 25.8 µM; in test [6] it was greater than 100 µM. For the same molecule, the TGI in [7] was 41.7 µM; in [8] it was 13.9 µM; in test [9] it was greater than 84.3 µM; in test [10], greater than 95.1 µM.

As for `O=C1c2cccnc2C(=O)c2c1c(C(=O)OCCc1ccccn1)c1ccccn21`, the GI50 is 0.0296 µM in test [1]; 0.0671 µM in test [2]; less than 0.0153 µM in [3]; less than 0.01 µM in [4]; 0.0612 µM in test [5]; 0.0749 µM in test [6]. In addition, the GI50 in [7] is 0.0334 µM; in test [8], 0.12 µM; in test [9], 1.13 µM; in [10], 0.351 µM. Moreover, the TGI in [1] is 1.22 µM; in [2] it was 2.11 µM; in [3], 1.71 µM; in test [4], 0.147 µM; in test [5], greater than 100 µM; in test [6] it was 1.55 µM. The TGI in test [7] is 0.432 µM; in test [8] it was 2.08 µM; in [9], 8.39 µM; in test [10], 3.47 µM.

In the case of `COc1ccccc1NC(=O)C(=O)Cc1cnc2ccccc2n1`, the TGI in [1], in [2], in test [3], in test [4], in [5] and in test [6] was greater than 100 µM each time. The TGI in [7], in test [8], in test [9] and in test [10] was greater than 100 µM in each case.

With `CCOC(=O)c1cn(CC)c2ccc3ccsc3c2c1=O`, the TGI in test [1], in test [2], in test [3], in test [4], in test [5] and in test [6] was greater than 100 µM in each case. Further, the TGI in test [7], in [8], in test [9] and in [10] was greater than 100 µM in each case.
